Paper PMC3778450, “Agonists and antagonists induce different palonosetron dissociation rates in 5-HT3A and 5-HT3AB receptors^” (Neuropharmacology, 2013)
pIC50, pKd, pKi: −log10 of the molar value. Where two headings read alike, the source gives them in different places.

Assays:
5-HT3A receptors [1] = biological target: T1, 5-HT3A receptors (Homo sapiens, UniProt P46098); experiment: Radioligand association and dissociation kinetics, HEK293 membranes; type: binding; design: dissociation k−1 (mean ± S.E.M): unit: h−1
T1 construct: expressed in transfected cells; host or cells: HEK293
T1 sequence (P46098 24-478): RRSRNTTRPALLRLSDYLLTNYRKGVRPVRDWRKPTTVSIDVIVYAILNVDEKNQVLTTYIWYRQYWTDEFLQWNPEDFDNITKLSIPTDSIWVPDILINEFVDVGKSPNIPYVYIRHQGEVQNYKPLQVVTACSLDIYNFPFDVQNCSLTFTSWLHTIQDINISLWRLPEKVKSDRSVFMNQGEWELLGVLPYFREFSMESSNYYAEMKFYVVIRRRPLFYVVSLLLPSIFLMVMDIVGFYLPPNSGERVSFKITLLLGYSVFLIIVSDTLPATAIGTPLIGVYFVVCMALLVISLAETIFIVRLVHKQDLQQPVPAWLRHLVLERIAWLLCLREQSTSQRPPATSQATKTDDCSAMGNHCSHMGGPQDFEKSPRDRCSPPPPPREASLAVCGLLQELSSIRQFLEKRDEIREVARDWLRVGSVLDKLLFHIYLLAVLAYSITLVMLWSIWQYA
Description: (§1) Human embryonic kidney (HEK) 293 cells were maintained on 90 mm tissue culture plates at 37 °C and 7% CO2 in a humidified atmosphere. They were cultured in DMEM:F12 (Dulbecco's Modified Eagle Medium/Nutrient Mix F12 (1:1)) with GlutaMAX™ I media containing 10% foetal calf serum and passaged when confluent. For radioligand binding studies cells in 90 mm dishes were transfected using PEI and incubated for 3–4 days before use. For functional studies cells were plated on 96 well plates, transfected using the Neon transfection system (Invitrogen) and incubated 1–2 days before assay. Mutagenesis reactions were performed using QuikChange (Agilent Technologies Inc., CA, USA) using human 5-HT3A or 5-HT3B receptor subunit cDNA (accession numbers: P46098 or O95264) in pcDNA3.1 (Invitrogen, Paisley, UK). Subunit numberings have been altered to the aligning residues in the mouse 5-HT3A receptor.
(§2) Briefly, transfected HEK293 cells were washed twice with phosphate buffered saline (PBS) at room temperature and scraped into 1 ml of ice-cold HEPES buffer (10 mM, pH 7.4) containing the following proteinase inhibitors (PI): 1 mM EDTA, 50 μg ml^−1 soybean trypsin inhibitor, 50 μg/ml bacitracin and 0.1 mM phenylmethylsulphonyl fluoride. […] Non-specific binding was determined using 10 μM quipazine. […] All samples were terminated by vacuum filtration using a Brandel cell harvester onto GF/B filters pre-soaked in 0.3% polyethyleneimine. Radioactivity was determined by scintillation counting using a Beckman LS6000SC (Fullerton, California, USA).
(§3) Data were analysed by iterative curve fitting using Prism software (GraphPad, San Diego, California, USA). Determination of Ki values was performed using the Cheng–Prusoff equation. Values are presented as mean ± SEM, n = 3–6.

5-HT3 receptors = system: 5-HT3 receptors; design: method as in Wong et al., 1995; conditions: ref Wong et al., 1995, cited from earlier work
[2] = system: 5-HT3 receptors, NG108-15 cells; design: method as in Wong et al., 1995; conditions: ref Wong et al., 1995; cited from earlier work
5-HT3AB receptors [3] = biological target: T2, 5-HT3AB receptors (Homo sapiens, UniProt P46098); experiment: [3H]granisetron competition binding, HEK293 membranes; conditions: displacement of [3H]granisetron
T2 construct: expressed in transfected cells; host or cells: HEK293
T2 sequence (P46098 24-478): T1 sequence (P46098 24-478)
T2 sequence (O95264 22-441 partner): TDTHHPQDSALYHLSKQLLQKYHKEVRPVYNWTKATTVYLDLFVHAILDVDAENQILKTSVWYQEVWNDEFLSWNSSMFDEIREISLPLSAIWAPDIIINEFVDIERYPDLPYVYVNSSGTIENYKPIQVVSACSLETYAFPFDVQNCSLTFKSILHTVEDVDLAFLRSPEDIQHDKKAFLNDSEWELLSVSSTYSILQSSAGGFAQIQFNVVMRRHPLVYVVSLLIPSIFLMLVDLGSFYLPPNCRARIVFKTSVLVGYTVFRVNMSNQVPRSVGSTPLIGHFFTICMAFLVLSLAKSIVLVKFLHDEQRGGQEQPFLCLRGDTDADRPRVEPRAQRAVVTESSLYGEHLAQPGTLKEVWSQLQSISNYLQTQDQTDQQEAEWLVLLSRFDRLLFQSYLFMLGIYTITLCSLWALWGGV
Description: as §1, §2, §3

5-HT3A receptors [4] = biological target: T1, 5-HT3A receptors; experiment: as above; conditions: displacement of [3H]granisetron
Description: as §1, §2, §3

5-HT3AB receptors [5] = biological target: T2, 5-HT3AB receptors; experiment: Flexstation membrane potential dye assay, inhibition of 5-HT-induced responses; type: cell-based; conditions: for relative Fmax: relative to 0 palonosetron (100%), typical example
Description: as §1
(§4) Fluorescence was measured in a FLEXstation™ (Molecular Devices Ltd., Wokingham, UK) every 2 s for 200 s using the acquisition software SOFTmax® PRO v4.3.
as §3

5-HT3A receptors [6] = biological target: T1, 5-HT3A receptors; experiment: as above; type: cell-based; conditions: for relative Fmax: relative to 0 palonosetron (100%), typical example; for pIC50: read-out: IC50
Description: as §1, §4, §3

[7] = biological target: 5-HT3 receptors, human hippocampus; design: method as in Wong et al., 1995; conditions: ref Wong et al., 1995; cited from earlier work
5-HT3AB receptors [8] = biological target: T2, 5-HT3AB receptors; experiment: Radioligand association and dissociation kinetics, HEK293 membranes; type: binding; design: dissociation k−1 (mean ± S.E.M): unit not given here
Description: as §1, §2, §3

[9] = system: 5-HT3 receptors, transfected HEK293 cells; design: method as in Rojas et al., 2008; conditions: ref Rojas et al., 2008; cited from earlier work
[10] = biological target: T3, 5-HT3 receptors expressed in oocytes (Homo sapiens, UniProt P46098); experiment: Recovery from palonosetron inhibition after washout in oocytes; type: cell-based; conditions: after a 10 min wash; data not shown
T3 sequence (P46098 24-478): T1 sequence (P46098 24-478)

[11] = system: 5-HT3 receptor-expressing HEK293 cells; conditions: cited from earlier work; for [3H]palonosetron remaining: ref Rojas et al., 2010
5-HT3AB receptors [12] = biological target: T2, 5-HT3AB receptors; experiment: [3H]palonosetron saturation binding, HEK293 membranes; conditions: 24 h, 4 °C
Description: (§5) Human embryonic kidney (HEK) 293 cells were maintained on 90 mm tissue culture plates at 37 °C and 7% CO2 in a humidified atmosphere. They were cultured in DMEM:F12 (Dulbecco's Modified Eagle Medium/Nutrient Mix F12 (1:1)) with GlutaMAX™ I media containing 10% foetal calf serum and passaged when confluent. For radioligand binding studies cells in 90 mm dishes were transfected using PEI and incubated for 3–4 days before use. For functional studies cells were plated on 96 well plates, transfected using the Neon transfection system (Invitrogen) and incubated 1–2 days before assay. […]
(§6) Briefly, transfected HEK293 cells were washed twice with phosphate buffered saline (PBS) at room temperature and scraped into 1 ml of ice-cold HEPES buffer (10 mM, pH 7.4) containing the following proteinase inhibitors (PI): 1 mM EDTA, 50 μg ml^−1 soybean trypsin inhibitor, 50 μg/ml bacitracin and 0.1 mM phenylmethylsulphonyl fluoride. […] Non-specific binding was determined using 10 μM quipazine. […] Radioactivity was determined by scintillation counting using a Beckman LS6000SC (Fullerton, California, USA).
(§7) Data were analysed by iterative curve fitting using Prism software (GraphPad, San Diego, California, USA). […]

5-HT3A receptors [13] = biological target: T1, 5-HT3A receptors; experiment: as above; conditions: 24 h, 4 °C
Description: as §5, §6, §7

[14] = agonist-induced dissociation (5-HT or quipazine)
[15] = displacing ligand MDL72222 (1 μM)
[16] = displacing ligand unlabelled palonosetron (100 nM)
[17] = palonosetron preincubated 45 min before 5-HT, HEK293 cells, read-out: pIC50 (converted)
[18] = displacing ligand 5-HT (100 μM)
[19] = displacing ligand quipazine (10 μM)

Compound: O=C1c2cccc3c2[C@H](CCC3)CN1[C@@H]1CN2CCC1CC2 [Palonosetron, palonosetron]
- dissociation t1/2 (5-HT3A receptors [1]; [14]): > 10 h
- dissociation t1/2 (5-HT3A receptors [1]; [15]): 2.3 h
- dissociation t1/2 (5-HT3A receptors [1]; [16]): 1.5 h
- dissociation t½ (5-HT3 receptors; previous studies): 8 to 10 min
- pKd [2]: 10.30
- pIC50 (5-HT3AB receptors [3]; 4 °C): 9.15
- pKi (5-HT3AB receptors [3]; Cheng–Prusoff): 9.46
- pIC50 (5-HT3A receptors [4]; 4 °C): 9.22
- pKi (5-HT3A receptors [4]; Cheng–Prusoff): 9.52
- relative Fmax (5-HT3AB receptors [5]; 0.1 nM palonosetron): 62%
- relative Fmax (5-HT3AB receptors [5]; 0.3 nM palonosetron): 28%
- pIC50 (5-HT3AB receptors [5]; palonosetron preincubated 45 min before 5-HT, HEK293 cells, read-out: IC50): 9.74
- IC50 (5-HT3AB receptors [5]; [17]): 0.186 nM
- relative Fmax (5-HT3A receptors [6]; 0.1 nM palonosetron): 70%
- relative Fmax (5-HT3A receptors [6]; 0.3 nM palonosetron): 40%
- pIC50 (5-HT3A receptors [6]; palonosetron co-applied with 5-HT, HEK293 cells): 7.08
- pIC50 (5-HT3A receptors [6]; palonosetron preincubated 45 min before 5-HT, HEK293 cells): 9.62
- IC50 (5-HT3A receptors [6]; [17]): 0.245 nM
- pKd [7]: 9.82
- dissociation t1/2 (5-HT3AB receptors [8]; [14]): > 10 h
- dissociation t1/2 (5-HT3AB receptors [8]; [15]): 1.7 h
- dissociation t1/2 (5-HT3AB receptors [8]; [16]): 1.0 h
- pKd [9]: 9.70
- original response recovered after washout [10]: < 10%

Compound: O=C1c2cccc3c2[C@H](CCC3)CN1[C@@H]1CN2CCC1CC2 [[^3H]palonosetron]
- association k (5-HT3A receptors [1]): 0.16 ± 0.03
- association t1/2 (5-HT3A receptors [1]): 4.1 min
- [3H]palonosetron remaining (5-HT3A receptors [1]; after 2 h dissociation in the presence of MDL72222): 67 ± 7%
- dissociation k−1 (mean ± S.E.M) (5-HT3A receptors [1]; [18]): 0.032 ± 0.005
- dissociation t1/2 (5-HT3A receptors [1]; [18]): 21.9 h
- dissociation k−1 (mean ± S.E.M) (5-HT3A receptors [1]; [15]): 0.29 ± 0.03
- dissociation k−1 (mean ± S.E.M) (5-HT3A receptors [1]; [19]): 0.056 ± 0.003
- dissociation t1/2 (5-HT3A receptors [1]; [19]): 12.5 h
- dissociation k−1 (mean ± S.E.M) (5-HT3A receptors [1]; [16]): 0.44 ± 0.05
- dissociation t1/2 (5-HT3A receptors [1]; [16]): 1.5 h
- time to complete association (5-HT3 receptors; previously reported): under 10 min
- [3H]palonosetron remaining associated ([11]; HEK293 cells after a 2.5 h wash, ref Rojas et al. (2008)): 53 ± 11%
- [3H]palonosetron remaining ([11]; cell-free membrane preparation after a 60 min wash): 2%
- [3H]palonosetron remaining ([11]; cells after a 60 min wash): 65%
- association k (5-HT3AB receptors [8]): 0.35 ± 0.06
- association t1/2 (5-HT3AB receptors [8]): 2.0 min
- dissociation k−1 (mean ± S.E.M) (5-HT3AB receptors [8]; [18]): 0.057 ± 0.008
- dissociation t1/2 (5-HT3AB receptors [8]; [18]): 12.1 h
- dissociation k−1 (mean ± S.E.M) (5-HT3AB receptors [8]; [15]): 0.41 ± 0.04
- dissociation k−1 (mean ± S.E.M) (5-HT3AB receptors [8]; [19]): 0.068 ± 0.003
- dissociation t1/2 (5-HT3AB receptors [8]; [19]): 10.1 h
- dissociation k−1 (mean ± S.E.M) (5-HT3AB receptors [8]; [16]): 0.68 ± 0.08
- pKd (5-HT3AB receptors [12]): 9.82
- pKd (5-HT3A receptors [13]): 9.47
